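Here, GI50 denotes the concentration required for 50% inhibition of growth. At the TGI there is no net growth.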
How the values were obtained:
Test in all cases: DTP human tumour cell line panel, 384-well format
NCI-H226 lung = system: NCI-H226 lung
COLO 205 colon = system: COLO 205 colon
UO-31 renal = system: UO-31 renal
EKVX NSCLC = system: EKVX NSCLC
LOX IMVI melanoma = system: LOX IMVI melanoma
SK-OV-3 ovarian = system: SK-OV-3 ovarian
T-47D breast = system: T-47D breast
OVCAR-8 ovarian = system: OVCAR-8 ovarian
SK-MEL-5 melanoma = system: SK-MEL-5 melanoma
IGROV1 ovarian = system: IGROV1 ovarian
HCC-2998 colon = system: HCC-2998 colon
SF-539 CNS = system: SF-539 CNS
SN12C renal = system: SN12C renal
U251 glioblastoma = system: U251 glioblastoma
NCI/ADR-RES ovarian = system: NCI/ADR-RES ovarian
HCT-15 colon = system: HCT-15 colon
RPMI-8226 leukemia = system: RPMI-8226 leukemia
NCI-H522 lung = system: NCI-H522 lung
HCT-116 colon = system: HCT-116 colon
MDA-MB-435 melanoma = system: MDA-MB-435 melanoma
OVCAR-3 ovarian = system: OVCAR-3 ovarian
A549 NSCLC = system: A549 NSCLC
SK-MEL-2 melanoma = system: SK-MEL-2 melanoma
HOP-92 NSCLC = system: HOP-92 NSCLC
MOLT-4 leukemia = system: MOLT-4 leukemia
SNB-75 CNS = system: SNB-75 CNS
DU-145 prostate = system: DU-145 prostate
ACHN renal = system: ACHN renal
OVCAR-5 ovarian = system: OVCAR-5 ovarian
SK-MEL-28 melanoma = system: SK-MEL-28 melanoma
MCF7 breast = system: MCF7 breast
786-0 renal = system: 786-0 renal
KM12 colon = system: KM12 colon
SR leukemia = system: SR leukemia
M14 melanoma = system: M14 melanoma
NCI-H322M lung = system: NCI-H322M lung
A498 renal = system: A498 renal
HL-60(TB) leukemia = system: HL-60(TB) leukemia
UACC-257 melanoma = system: UACC-257 melanoma
CCRF-CEM leukemia = system: CCRF-CEM leukemia
K-562 leukemia = system: K-562 leukemia
PC-3 prostate = system: PC-3 prostate
MDA-MB-468 breast = system: MDA-MB-468 breast
HT29 colon = system: HT29 colon
MDA-MB-231 breast = system: MDA-MB-231 breast
RXF 393 renal = system: RXF 393 renal
UACC-62 melanoma = system: UACC-62 melanoma

O=C(CCCCCCC(=O)N/N=C/c1ccc(N(c2ccccc2)c2ccccc2)cc1)NO
GI50 (NCI-H226 lung): 187 nM
TGI (NCI-H226 lung): 365 nM
GI50 (COLO 205 colon): 2120 nM
TGI (COLO 205 colon): 3850 nM
GI50 (UO-31 renal): 1730 nM
TGI (UO-31 renal): 8200 nM
GI50 (EKVX NSCLC): 2620 nM
TGI (EKVX NSCLC): 6520 nM
GI50 (LOX IMVI melanoma): 190 nM
TGI (LOX IMVI melanoma): 369 nM
GI50 (SK-OV-3 ovarian): 1370 nM
TGI (SK-OV-3 ovarian): 2830 nM
GI50 (T-47D breast): 562 nM
TGI (T-47D breast): 1600 nM
GI50 (OVCAR-8 ovarian): 1500 nM
TGI (OVCAR-8 ovarian): 3880 nM
GI50 (SK-MEL-5 melanoma): 1630 nM
TGI (SK-MEL-5 melanoma): 3100 nM
GI50 (IGROV1 ovarian): 413 nM
TGI (IGROV1 ovarian): 1460 nM
GI50 (HCC-2998 colon): 1840 nM
TGI (HCC-2998 colon): 3870 nM
GI50 (SF-539 CNS): 2150 nM
TGI (SF-539 CNS): 4880 nM
GI50 (SN12C renal): 1830 nM
TGI (SN12C renal): 3620 nM
GI50 (U251 glioblastoma): 1610 nM
TGI (U251 glioblastoma): 3070 nM
GI50 (NCI/ADR-RES ovarian): 4360 nM
TGI (NCI/ADR-RES ovarian): 15900 nM
GI50 (HCT-15 colon): 2800 nM
TGI (HCT-15 colon): 7260 nM
GI50 (RPMI-8226 leukemia): 260 nM
TGI (RPMI-8226 leukemia): 574 nM
GI50 (NCI-H522 lung): 1440 nM
TGI (NCI-H522 lung): 4340 nM
GI50 (HCT-116 colon): 702 nM
TGI (HCT-116 colon): 1890 nM
GI50 (MDA-MB-435 melanoma): 3910 nM
TGI (MDA-MB-435 melanoma): 11900 nM
GI50 (OVCAR-3 ovarian): 673 nM
TGI (OVCAR-3 ovarian): 1900 nM
GI50 (A549 NSCLC): 1840 nM
TGI (A549 NSCLC): 3830 nM
GI50 (SK-MEL-2 melanoma): 1450 nM
TGI (SK-MEL-2 melanoma): 2830 nM
GI50 (HOP-92 NSCLC): 1050 nM
TGI (HOP-92 NSCLC): 2620 nM
GI50 (MOLT-4 leukemia): 471 nM
TGI (MOLT-4 leukemia): 1510 nM
GI50 (SNB-75 CNS): 2820 nM
TGI (SNB-75 CNS): 7800 nM
GI50 (DU-145 prostate): 1740 nM
TGI (DU-145 prostate): 3370 nM
GI50 (ACHN renal): 1790 nM
TGI (ACHN renal): 3590 nM
GI50 (OVCAR-5 ovarian): 665 nM
TGI (OVCAR-5 ovarian): 2090 nM
GI50 (SK-MEL-28 melanoma): 2890 nM
TGI (SK-MEL-28 melanoma): 8290 nM
GI50 (MCF7 breast): 297 nM
TGI (MCF7 breast): 1720 nM
GI50 ([…]-0 renal): 1840 nM
TGI (786-0 renal): 3820 nM
GI50 (KM12 colon): 2630 nM
TGI (KM12 colon): 9170 nM
GI50 (SR leukemia): 144 nM
TGI (SR leukemia): 321 nM
GI50 (M14 melanoma): 2700 nM
TGI (M14 melanoma): 7060 nM
GI50 (NCI-H322M lung): 3110 nM
TGI (NCI-H322M lung): 9540 nM
GI50 (A498 renal): 146 nM
TGI (A498 renal): 283 nM
GI50 (HL-60(TB) leukemia): 1280 nM
TGI (HL-60(TB) leukemia): 2560 nM
GI50 (UACC-257 melanoma): 589 nM
TGI (UACC-257 melanoma): 1310 nM
GI50 (CCRF-CEM leukemia): 979 nM
TGI (CCRF-CEM leukemia): 2260 nM
GI50 (K-562 leukemia): 1420 nM
TGI (K-562 leukemia): 2750 nM
GI50 (PC-3 prostate): 1770 nM
TGI (PC-3 prostate): 4330 nM
GI50 (MDA-MB-468 breast): 137 nM
TGI (MDA-MB-468 breast): 277 nM
GI50 (HT29 colon): 1800 nM
TGI (HT29 colon): 3450 nM
GI50 (MDA-MB-231 breast): 1900 nM
TGI (MDA-MB-231 breast): 4600 nM
GI50 (RXF 393 renal): 790 nM
TGI (RXF 393 renal): 2100 nM
GI50 (UACC-62 melanoma): 397 nM
TGI (UACC-62 melanoma): 1440 nM

Reference: PubChem BioAssay (NCI)
